Tests used:
CBP = CBP (Homo sapiens (Human), UniProt Q92793); experiment: CBP TR-FRET binding assay; conditions: His/Flag tagged CBP 4 nM, biotin-ligand 60 nM; read-out: CBP HTRF IC50;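 further: displacement of a biotinylated small-molecule ligand from purified recombinant CBP read by TR-FRET, DMSO-only wells as control, IC50 from nonlinear curve fit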
Method: IC50 Measurements for Inhibitors Using CBP TR FRET Binding Assay
His/Flag epitope tagged CBP was cloned, expressed, and purified to homogeneity. CBP binding and inhibition was assessed by monitoring the engagement of a biotinylated small molecule compound with the target using the TR-FRET assay technology (Perkin-Elmer). Specifically, in a 384 well ProxiPlate CBP (4 nM final) was combined with biotin-ligand (60 nM final) in 50 mM HEPES (pH 7.5), 50 mM NaCl, 1 mM TCEP, 0.01% (w/v) BSA, and 0.008% (w/v) Brij-35 either in the presence of DMSO (final 0.2% DMSO) or compound dilution series in DMSO. […] After twenty minutes of equilibration, the plates were read on an Envision instrument and IC50S calculated using a four parameter non-linear curve fit.

MYC = MYC RPL19 QuantiGene assay in MV-4-11 cells; type: cell-based; conditions: Homo sapiens, MV4-11, compound 4 hours
Excerpt: MYC RPL19 QuantiGene assay in MV-4-11 Cells

CBP, sequence (Q92793 whole entry): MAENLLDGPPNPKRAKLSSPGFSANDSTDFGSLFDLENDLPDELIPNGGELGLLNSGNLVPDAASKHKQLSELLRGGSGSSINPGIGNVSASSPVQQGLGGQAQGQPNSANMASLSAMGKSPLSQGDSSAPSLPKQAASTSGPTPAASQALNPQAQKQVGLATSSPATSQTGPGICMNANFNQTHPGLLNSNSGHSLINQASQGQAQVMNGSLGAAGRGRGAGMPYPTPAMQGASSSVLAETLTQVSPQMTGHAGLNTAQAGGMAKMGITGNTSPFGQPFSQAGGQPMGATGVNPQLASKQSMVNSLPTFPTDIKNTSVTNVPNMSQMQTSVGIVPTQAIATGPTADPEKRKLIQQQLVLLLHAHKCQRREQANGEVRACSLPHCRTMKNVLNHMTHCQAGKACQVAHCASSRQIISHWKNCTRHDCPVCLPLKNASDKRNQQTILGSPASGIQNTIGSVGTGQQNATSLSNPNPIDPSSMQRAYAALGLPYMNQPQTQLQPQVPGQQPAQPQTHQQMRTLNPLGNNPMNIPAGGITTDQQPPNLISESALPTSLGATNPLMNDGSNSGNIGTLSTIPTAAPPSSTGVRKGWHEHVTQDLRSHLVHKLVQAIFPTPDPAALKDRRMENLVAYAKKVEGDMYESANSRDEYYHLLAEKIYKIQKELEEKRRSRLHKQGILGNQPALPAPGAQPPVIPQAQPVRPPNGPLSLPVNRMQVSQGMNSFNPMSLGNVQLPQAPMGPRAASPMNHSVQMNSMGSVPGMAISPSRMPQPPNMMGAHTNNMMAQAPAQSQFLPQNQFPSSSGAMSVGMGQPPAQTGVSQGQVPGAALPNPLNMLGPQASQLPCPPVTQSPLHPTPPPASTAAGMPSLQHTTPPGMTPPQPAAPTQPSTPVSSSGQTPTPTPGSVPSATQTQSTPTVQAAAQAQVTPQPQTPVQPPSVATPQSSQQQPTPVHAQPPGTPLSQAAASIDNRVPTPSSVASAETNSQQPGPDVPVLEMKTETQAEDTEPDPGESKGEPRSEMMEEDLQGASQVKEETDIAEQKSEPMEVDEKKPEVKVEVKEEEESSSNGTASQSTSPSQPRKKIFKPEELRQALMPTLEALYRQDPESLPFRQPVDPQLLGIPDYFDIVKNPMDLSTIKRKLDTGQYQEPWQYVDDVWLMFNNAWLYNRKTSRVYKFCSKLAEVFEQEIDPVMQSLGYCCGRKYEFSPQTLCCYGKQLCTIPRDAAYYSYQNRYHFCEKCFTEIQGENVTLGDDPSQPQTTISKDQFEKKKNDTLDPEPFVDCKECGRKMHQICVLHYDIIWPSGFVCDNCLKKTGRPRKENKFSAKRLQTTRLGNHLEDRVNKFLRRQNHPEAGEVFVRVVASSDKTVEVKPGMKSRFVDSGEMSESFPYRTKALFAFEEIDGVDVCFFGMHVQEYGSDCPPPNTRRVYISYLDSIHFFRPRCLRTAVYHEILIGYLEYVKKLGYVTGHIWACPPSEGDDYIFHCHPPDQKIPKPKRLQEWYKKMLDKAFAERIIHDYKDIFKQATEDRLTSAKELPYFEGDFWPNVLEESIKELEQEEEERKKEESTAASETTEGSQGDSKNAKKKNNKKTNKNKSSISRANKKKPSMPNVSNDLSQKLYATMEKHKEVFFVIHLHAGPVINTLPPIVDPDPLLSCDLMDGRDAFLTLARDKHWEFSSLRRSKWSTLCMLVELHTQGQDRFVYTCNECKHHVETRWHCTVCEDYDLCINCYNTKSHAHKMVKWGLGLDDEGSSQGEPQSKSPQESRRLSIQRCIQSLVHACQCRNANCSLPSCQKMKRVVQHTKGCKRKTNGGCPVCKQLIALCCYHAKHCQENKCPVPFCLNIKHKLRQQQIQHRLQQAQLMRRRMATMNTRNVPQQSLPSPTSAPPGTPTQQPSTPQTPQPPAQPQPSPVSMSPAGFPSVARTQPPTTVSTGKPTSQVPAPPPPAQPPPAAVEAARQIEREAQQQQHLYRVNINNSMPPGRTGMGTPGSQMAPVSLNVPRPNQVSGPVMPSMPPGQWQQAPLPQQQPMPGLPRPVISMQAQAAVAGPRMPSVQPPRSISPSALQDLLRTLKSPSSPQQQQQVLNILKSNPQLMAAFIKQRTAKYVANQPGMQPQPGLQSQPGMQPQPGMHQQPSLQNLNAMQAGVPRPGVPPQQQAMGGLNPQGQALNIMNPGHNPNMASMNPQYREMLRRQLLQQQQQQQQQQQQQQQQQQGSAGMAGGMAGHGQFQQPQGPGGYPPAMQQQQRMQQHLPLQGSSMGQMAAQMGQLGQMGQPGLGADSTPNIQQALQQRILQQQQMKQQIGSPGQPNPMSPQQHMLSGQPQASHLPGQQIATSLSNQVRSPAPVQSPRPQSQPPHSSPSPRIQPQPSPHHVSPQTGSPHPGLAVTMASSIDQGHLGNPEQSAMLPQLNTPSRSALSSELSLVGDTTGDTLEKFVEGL

IC50 (CBP) [nM]	IC50 (MYC) [nM]	SMILES
42	1170	Cn1cc(-c2cc3c(cc2C(F)F)N(c2cc(Cl)c4c(c2)n(C)c(=O)n4C)CCC3)cn1 [Example 33, 4-chloro-6-(7-(difluoromethyl)-6-(1-methyl-1H-pyrazol-4-yl)-3,4-dihydroquinolin-1(2H)-yl)-1,3-dimethyl-1H-benzo[d]imidazol-2(3H)-one]
23	428	Cn1cc(-c2cc3c(cc2C(F)F)N(c2cc4c(cc2F)n(C)c(=O)n4C)CCC3)cn1 [Example 35]
72	1940	Cc1c(N2CCCc3cc(-c4cnn(C)c4)c(C(F)F)cc32)ccc2c1n(C)c(=O)n2C [Example 40]
5	136	CN(C)c1cc(N2CCCc3cc(-c4cnn(C)c4)c(C(F)F)cc32)cc2c1n(C)c(=O)n2C [Example 41, 6-(7-(difluoromethyl)-6-(1-methyl-1H-pyrazol-4-yl)-3,4-dihydroquinolin-1(2H)-yl)-4-(dimethylamino)-1,3-dimethyl-1H-benzo[d]imidazol-2(3H)-one]
6	115	Cn1cc(-c2cc3c(cc2C(F)F)N(c2cc(N4CCCC4)c4c(c2)n(C)c(=O)n4C)CCC3)cn1 [Example 43]
4	11	Cn1cc(-c2cc3c(cc2C(F)F)N(c2cc(N4CCOCC4)c4c(c2)n(C)c(=O)n4C)CCC3)cn1 [Example 45]
12		C#Cc1cc(N2CCCc3cc(-c4cnn(C)c4)c(C(F)F)cc32)cc2c1n(C)c(=O)n2C [Example 101, 6-(7-(difluoromethyl)-6-(1-methyl-1H-pyrazol-4-yl)-3,4-dihydroquinolin-1(2H)-yl)-4-ethynyl-1,3-dimethyl-1H-benzo[d]imidazol-2(3H)-one]
16		CNC(=O)c1cn(C)c2c(OC)cc(N3CCCc4cc(-c5cnn(C)c5)c(C(F)F)cc43)cc12 [Example 106, 5-(7-(difluoromethyl)-6-(1-methyl-1H-pyrazol-4-yl)-3,4-dihydroquinolin-1(2H)-yl)-7-methoxy-N,1-dimethyl-1H-indole-3-carboxamide]
273		CCc1cc(-c2ccccc2C)cc2c1OCCN(C(=O)NC)C2 [Example 109, 9-ethyl-N-methyl-7-(o-tolyl)-2,3-dihydrobenzo[f][1,4]oxazepine-4(5H)-carboxamide]
201		CNC(=O)N1CCOc2c(cc(-c3ccccc3C)cc2C(C)C)C1 [Example 110, 9-isopropyl-N-methyl-7-(o-tolyl)-2,3-dihydrobenzo[f][1,4]oxazepine-4(5H)-carboxamide]
409		CNC(=O)N1CCOc2c(cc(-c3ccccc3C)cc2OC)C1 [Example 111, 9-methoxy-N-methyl-7-(o-tolyl)-2,3-dihydrobenzo[f][1,4]oxazepine-4(5H)-carboxamide]
51		CNC(=O)N1Cc2cc(N3CCCc4cc(-c5cnn(C)c5)c(C(F)F)cc43)ccc2OC(C)C1 (stereo not drawn) [Example 114, 7-(7-(difluoromethyl)-6-(1-methyl-1H-pyrazol-4-yl)-3,4-dihydroquinolin-1(2H)-yl)-N,2-dimethyl-2,3-dihydrobenzo[f][1,4]oxazepine-4(5H)-carboxamide]
88		CNC(=O)Nc1cccc(N2CCCc3cc(-c4cnn(C)c4)c(C(F)F)cc32)n1 [Example 122, 1-(6-(7-(difluoromethyl)-6-(1-methyl-1H-pyrazol-4-yl)-3,4-dihydroquinolin-1(2H)-yl)pyridin-2-yl)-3-methylurea]
14		CNC(=O)c1cn(C)nc1C(=O)Nc1cccc2cc(-c3cnn(C)c3)ncc12 [Example 124, N^4,1-dimethyl-N^3-(3-(1-methyl-1H-pyrazol-4-yl)isoquinolin-8-yl)-1H-pyrazole-3,4-dicarboxamide]

Continued, compound first:

SMILES	IC50 (CBP) [nM]	IC50 (MYC) [nM]
CNC(=O)N1CCNc2ccc(N3CCCc4cc(-c5cnn(C)c5)c(C(F)F)cc43)cc2C1 [Example 16, 7-[7-(difluoromethyl)-6-(1-methylpyrazol-4-yl)-3,4-dihydro-2H-quinolin-1-yl]-N-methyl-1,2,3,5-tetrahydro-1,4-benzodiazepine-4-carboxamide]	8	173
CC(=O)N1CCc2c(cc(N3CCCc4cc(-c5cnn(C)c5)c(C(F)F)cc43)c(=O)n2C)C1 [Example 17]	47	2660
Cn1cc(-c2cc3c(cc2C(F)F)N(c2ccc4c(c2)n(C)c(=O)n4C)CCC3)cn1 [Example 18]	19	1020
Cn1cc(-c2cc3c(cc2C(F)F)N(c2ccc4c(c2F)n(C)c(=O)n4C)CCC3)cn1 [Example 34]	> 4900	> 10000
Cc1cc(N2CCCc3cc(-c4cnn(C)c4)c(C(F)F)cc32)cc2c1n(C)c(=O)n2C [Example 36, 6-(7-(difluoromethyl)-6-(1-methyl-1H-pyrazol-4-yl)-3,4-dihydroquinolin-1(2H)-yl)-1,3,4-trimethyl-1H-benzo[d]imidazol-2(3H)-one]	14	1380
CCc1cc(N2CCCc3cc(-c4cnn(C)c4)c(C(F)F)cc32)cc2c1n(C)c(=O)n2C [Example 37]	11	281
Cn1cc(-c2cc3c(cc2C(F)F)N(c2cc(C4CCC4)c4c(c2)n(C)c(=O)n4C)CCC3)cn1 [Example 39]	12	208
Cc1cc2c(cc1N1CCCc3cc(-c4cnn(C)c4)c(C(F)F)cc31)n(C)c(=O)n2C [Example 46]	13	413
CCc1cc2c(cc1N1CCCc3cc(-c4cnn(C)c4)c(C(F)F)cc31)n(C)c(=O)n2C [Example 47]	39	1110
C[C@H]1Nc2c(cccc2N2CCCc3cc(-c4cnn(C)c4)c(C(F)F)cc32)NC1=O [Example 81, (R)-5-(7-(difluoromethyl)-6-(1-methyl-1H-pyrazol-4-yl)-3,4-dihydroquinolin-1(2H)-yl)-3-methyl-3,4-dihydroquinoxalin-2(1H)-one]		131
CN1CCN(c2ccc3c(c2)n(C)c(=O)n3C)c2cc(C(F)(F)F)c(-c3cnn(C)c3)cc21 [Example 95, 1,3-dimethyl-5-(4-methyl-6-(1-methyl-1H-pyrazol-4-yl)-7-(trifluoromethyl)-3,4-dihydroquinoxalin-1(2H)-yl)-1H-benzo[d]imidazol-2(3H)-one]	30	
CCCc1cc(N2CCCc3cc(-c4cnn(C)c4)c(C(F)F)cc32)cc2c1n(C)c(=O)n2C [Example 99, 6-(7-(difluoromethyl)-6-(1-methyl-1H-pyrazol-4-yl)-3,4-dihydroquinolin-1(2H)-yl)-1,3-dimethyl-4-propyl-1H-benzo[d]imidazol-2(3H)-one]	19	
C#Cc1cc2c(cc1N1CCCc3cc(-c4cnn(C)c4)c(C(F)F)cc31)n(C)c(=O)n2C [Example 102, 5-(7-(difluoromethyl)-6-(1-methyl-1H-pyrazol-4-yl)-3,4-dihydroquinolin-1(2H)-yl)-6-ethynyl-1,3-dimethyl-1H-benzo[d]imidazol-2(3H)-one]	21	
CNC(=O)c1ccc2c(c1)n(-c1cccc3cc(-c4cnn(C)c4)ncc13)c(=O)n2C [Example 103, N,1-dimethyl-3-(3-(1-methyl-1H-pyrazol-4-yl)isoquinolin-8-yl)-2-oxo-2,3-dihydro-1H-benzo[d]imidazole-5-carboxamide]	222	
C[C@H]1Oc2c(cccc2N2CCCc3cc(-c4cnn(C)c4)c(C(F)F)cc32)NC1=O [Example 115, (R)-8-(7-(difluoromethyl)-6-(1-methyl-1H-pyrazol-4-yl)-3,4-dihydroquinolin-1(2H)-yl)-2-methyl-2H-benzo[b][1,4]oxazin-3(4H)-one]	77	
CN1Cc2c(cccc2N2CCCc3cc(-c4cnn(C)c4)c(C(F)F)cc32)NC1=O [Example 116, 5-(7-(difluoromethyl)-6-(1-methyl-1H-pyrazol-4-yl)-3,4-dihydroquinolin-1(2H)-yl)-3-methyl-3,4-dihydroquinazolin-2(1H)-one]	26	
CNC(=O)[C@H]1CCc2ccc(N3CCCc4cc(-c5cnn(C)c5)c(C(F)F)cc43)nc21 [Example 117, (S)-2-(7-(difluoromethyl)-6-(1-methyl-1H-pyrazol-4-yl)-3,4-dihydroquinolin-1(2H)-yl)-N-methyl-6,7-dihydro-5H-cyclopenta[b]pyridine-7-carboxamide]	40	
CNC(=O)[C@@H]1CCc2ccc(N3CCCc4cc(-c5cnn(C)c5)c(C(F)F)cc43)nc21 [Example 118, (R)-2-(7-(difluoromethyl)-6-(1-methyl-1H-pyrazol-4-yl)-3,4-dihydroquinolin-1(2H)-yl)-N-methyl-6,7-dihydro-5H-cyclopenta[b]pyridine-7-carboxamide]	3240	
CNC(=O)c1ccc2cncc(N3CCCc4cc(-c5cnn(C)c5)c(C(F)F)cc43)c2c1 [Example 119, 4-(7-(difluoromethyl)-6-(1-methyl-1H-pyrazol-4-yl)-3,4-dihydroquinolin-1(2H)-yl)-N-methylisoquinoline-6-carboxamide]	34	
CNC(=O)c1cccc2oc(-c3cccc4cc(-c5cnn(C)c5)ncc34)nc12 [Example 121, N-methyl-2-(3-(1-methyl-1H-pyrazol-4-yl)isoquinolin-8-yl)benzo[d]oxazole-4-carboxamide]	274	
CNC(=O)c1ccc2c(n1)c(N1CCCc3cc(-c4cnn(C)c4)c(C(F)F)cc31)nn2C1CCOCC1 [Example 125, 3-(7-(difluoromethyl)-6-(1-methyl-1H-pyrazol-4-yl)-3,4-dihydroquinolin-1(2H)-yl)-N-methyl-1-(tetrahydro-2H-pyran-4-yl)-1H-pyrazolo[4,3-b]pyridine-5-carboxamide]	2	
CNC(=O)C1CCc2c(c(N3CCCc4cc(-c5cnn(C)c5)c(C(F)F)cc43)nn2C2CCOCC2)C1 (stereo not drawn) [Example 126, 3-(7-(difluoromethyl)-6-(1-methyl-1H-pyrazol-4-yl)-3,4-dihydroquinolin-1(2H)-yl)-N-methyl-1-(tetrahydro-2H-pyran-4-yl)-4,5,6,7-tetrahydro-1H-indazole-5-carboxamide]	184	

— patent publication US10696655B2, “Therapeutic compounds and uses thereof” (GENENTECH, INC., priority 2017, dated 2020)
